Measured values reported in patent publication US20110190492A1, “DIAGNOSTIC PROBE FOR CONFORMATION DISEASE” (TOHOKU UNIVERSITY, priority 2005, published 2011).
Where two headings read alike, the source gives them in different places.

What was measured:
[1] = tested on: histidine-requiring Salmonella typhimurium TA100 and TA98 strains; conditions: in the presence of S9mix; literature comparison compounds; cited from earlier work
[2] = biological target: T1, Tg mouse intracerebral amyloid plaque (amyloid β protein) (Homo sapiens, UniProt P05067); assay: Tg mice with amyloid β deposition: intravenous administration, ex-vivo fluorescence microscopy of brain sections; format: in vivo, Tg mouse (Tg2576 or APPswe2576/Tau JPL3)
T1 construct: a Tg mouse (Tg2576) with amyloid β protein deposition; from tissue
T1 sequence (P05067 672-713 limits assumed): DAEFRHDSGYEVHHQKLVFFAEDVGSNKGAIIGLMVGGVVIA

amyloid β protein = biological target: T2, amyloid β protein (Homo sapiens, UniProt P05067); assay: Staining test on a brain section of an Alzheimer disease patient (amyloid β protein); format: binding, human (Alzheimer disease patient); conditions: 100 μM compound in 50% ethanol, 10 minutes, fluorescence microscopy
T2 construct: from tissue; host or cells: paraffin-embedded human brain sections (temporal lobe, hippocampus) of Alzheimer disease patients
T2 sequence (P05067 672-713 limits assumed): as above
From the text: (§1) (1) Brain specimens at the temporal lobe and the hippocampus of patients to which a definitive diagnosis of Alzheimer disease had been given, and those of normal senile persons were used. The specimens were given by our coworker, Fukushimura Hospital, Longevity Medicine Institute, and we were given their consent of use of the specimens for our study purpose by the bereaved of the patients (Fukushimura Hospital Ethical Review Board Approval No. 20).
(§2) (2) The paraffin-embedded brain tissue was cut into slices having a thickness of 6 μm or 8 μm, and extended and dried on a slide. The paraffin brain section was processed for paraffin removal in xylene twice for 10 minutes, 100% ethanol twice for 5 minutes, 90% ethanol for 5 minutes and running water for 10 minutes in that order.
(§3) (3) For pretreatment prior to the staining treatment with a compound of the invention, the sections were processed for autofluorescence removal with lipofuscin. First, the paraffin-removed sections were dipped in 0.25% KMnO4 solution for 20 minutes. These were washed with PBS, twice for 2 minutes, then dipped in 0.1% K2S2O5/oxalic acid solution for about 5 seconds, and then further washed with PBS, three times for 2 minutes.
(§4) (4) About 150 μl of a 100 μM solution of a compound of the invention dissolved in 50% ethanol was dropwise applied to the section and reacted for 10 minutes. After dipped five times in tap water, the section was entrapped with Fluor Save Reagent (Calbiochem), and analyzed through microscopy with a fluorescence microscope (Nikon, Eclipse 80i). The images were taken with a digital camera (Nikon Dxm 1200F or Photometrics' Cool SNAP ES).

[3] = tested on: histidine-requiring Salmonella typhimurium TA100 and TA98 strains; assay: Mutagenicity test (reverse mutation test); format: cell-based; conditions: for relative activity: irrespective of the absence or presence of S9mix
Experimental: In view of their use, it is desirable that the compounds of the invention have no mutagenicity or have little mutagenicity to a level causing no problem. For investigating the gene mutagenesis of the compounds of the invention, herein carried out was a reverse mutation test with histidine-requiring Salmonella typhimurium TA100 and TA98 strains. Two tests were carried out. One is a test for dose determination test; and the other is for mutagenicity.
The test methods and the mutagenicity of the compounds of the invention are mentioned below. In the dose determination test, six doses of 0.160, 0.800, 4.00, 20.0, 100 and 500 μg/plate (common ratio 5) were tried.
As a result of the dose determination test, when the mutagenicity of the test compound was admitted, then the actual test for mutagenicity was carried out, using the dose capable of giving an accurate dose-reaction curve. When no mutagenicity of the test compound was admitted in the dose determination test and when the growth inhibition of the test cells was admitted therein, then the dose to present the growth inhibition was taken as the maximum dose; and when the growth inhibition was not admitted, then a dose of 5000 μg/plate was taken as the maximum dose. With that, the actual test for mutagenicity was carried out on the level of 6 doses (common ratio 2).
First, a test compound was dissolved or suspended in DMSO, then diluted in order to prepare test compound liquids having a varying concentration.
100 μl of a test compound liquid or a negative control (DMSO) solution was put into a sterilized test tube. Then, for the case in the absence of a metabolic activation system (−S9mix), 500 μl of 0.1 mol/liter sodium-phosphate buffer (pH 7.4) was added to it; and for the case in the presence of a metabolic activation system (+S9mix), 500 μl of S9mix was added to it.
Next, 100 μl of the test strain suspension that had been cultivated with shaking at 37° C. for 8 hours was added to it, and preincubated in a shaking thermostat at 37° C. for 20 minutes. After shaken, 2 ml of top agar was added to it, and the contents were mixed.
Next, the mixture was poured onto a minimal glucose agar plate medium (plate) and spread uniformly thereon, then the top agar was solidified, and the plate was transferred into a thermostat and incubated at 37° C. for 48 hours.
Then, the number of the colonies grown through reverse mutation was counted.
For counting it, […]. After area correction and miss-counting correction, the number of the colonies was computed. When the colony analyzer could not be used owing to the deposition of the test compound or the cell growth inhibition, then the number of the colonies was counted with the naked eye.
In case where the number of the colonies through reverse mutation increased two times or more that of the negative control and where the dose dependency or the reproducibility of the increase was admitted, then the tested sample was decided as positive. When the sample was decided as positive, then the relative activity that indicates the relative comparative value of the intensity of the mutagenicity of the test compound was obtained according to the following formula:
Relative Activity={(number of colonies per plate having the concentration)−(number of colonies per negative control plate)}/the value of concentration (mg/plate).

[4] = Acute toxicity test, intravenous administration to mice; format: in vivo; conditions: mice observed for 7 days
Experimental: The compounds of the invention were tested for their acute toxicity through intravenous administration thereof to mice. Four Crj:CD1 male mice formed one test group, and some test groups of those mice were used (the mean body weight of the mice of each group was from 31 to 32 g). A test compound was dissolved in a mixture of 1 N HCl, polyethylene glycol-400 and distilled water, or dissolved in DMSO, and then diluted with distilled water. This was administered to each mouse via its tail vein.

Amyloid β protein 1-40 = biological target: T3, Amyloid β protein 1-40 (Homo sapiens, UniProt P05067); assay: Fluorescence Congo red method; format: binding; conditions: 1 h, compound 10 μM, amyloid β protein 5 μM
T3 construct: Amyloid β protein 1-40 (bought from Peptide Laboratory); purchased Peptide Laboratory
T3 sequence (P05067 672-711): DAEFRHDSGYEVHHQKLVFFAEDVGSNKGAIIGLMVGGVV
Experimental: (1) Amyloid β protein 1-40 (bought from Peptide Laboratory) was dissolved in a phosphate buffer (pH 7.4) and left at 37° C. for 4 days.
(2) 50 μl of Congo red dissolved in the buffer was applied to a 96-well microplate (final concentration, 0.1, 0.3, 1 μM).
(3) 100 μl of amyloid β protein was added to it (final concentration 5 μM), and left as such for 30 minutes.
(4) 100 μl of a test compound dissolved in the buffer was added to it (final concentration, 10 and left as such for 60 minutes.
(5) Using a fluorescence microplate reader (Spectra Max 190 by Molecular Device), the sample was analyzed at the optimum exciting wavelength and the test wavelength that had been previously determined.
(6) The fluorescence intensity in the presence of the test compound, amyloid β protein and Congo red is represented by A; that in the presence of the test compound and Congo red is by B; that in the presence of the test compound and amyloid β protein is by C; and that in the presence of only the test compound is by D. The β structure recognition of the test compound is computed according to the following formula:
β structure recognition (%) of test compound={(A−B)/(C−D)}×100.

neurofibrillary tangle = assay: Staining test on a brain section of an Alzheimer disease patient (neurofibrillary tangle); format: binding, human (Alzheimer disease patient); conditions: 100 μM compound in 50% ethanol, 10 minutes, fluorescence microscopy
From the text: as §1, §2, §3, §4

Row | SMILES | relative activity [1] | binding to amyloid β protein in the brain section of an Alzheimer disease patient (amyloid β protein) | relative activity [3] | Maximum Permissible Dose [4] | other results
1 | CC(=C(C#N)C#N)c1ccc2cc(N(C)CCF)ccc2c1 [FDDNP] | extremely high |  |  |  | 
2 | CN(C)c1ccc(-c2cn3cc(I)ccc3n2)cc1 [IMPY] | extremely high |  |  |  | 
3 | Cc1cc2nc(/C=C/c3ccc(N4CCOCC4)s3)sc2cc1C [THK-097, 5,6-dimethyl-2-[2-(5-morpholin-4-yl-thiophen-2-yl)vinyl]-benzothiazole] |  | bound to the amyloid β protein | minus |  | passage through the blood-brain barrier and binding to Tg mouse intracerebral amyloid plaque ([2]; intravenous administration via tail vein, brain fixed after 1 hour, fluorescence microscopy (THK-097 0.2 mg/kg; THK-525, THK-727, THK-702 4 mg/kg)): passed through the blood-brain barrier, and bound to the Tg mouse intracerebral amyloid plaque; Relative Activity in the absence of S9Mix ([3]; (colonies per plate − colonies per negative control plate)/concentration (mg/plate), in the absence of S9Mix as printed in head): minus; Relative Activity in the presence of S9Mix ([3]; (colonies per plate − colonies per negative control plate)/concentration (mg/plate), in the presence of S9Mix as printed in head): minus^1)
4 | OCC(CF)Oc1ccc2nc(/C=C/c3cnc(N4CCOCC4)s3)oc2c1 (stereo not drawn) [THK-702, (E)-2-[2-(2-morpholinothiazol-5-yl)ethenyl]-6-[(1-fluoromethyl-2-hydroxy)ethoxy]-benzoxazole] |  | The white space arrow indicates amyloid β protein | minus | ≧10 mg/kg | correspondence of binding site with anti-Aβ antibody-stained site of the same section ([2]; Tg2576 mouse, 4 mg/kg intravenous, antibody 4G8): completely corresponded to the anti-Aβ antibody-stained site of the same section
5 | OCC(CF)COc1ccc2nc(/C=C/c3cnc(N4CCOCC4)s3)oc2c1 (stereo not drawn) [THK-727, 2-fluoromethyl-3-[2-[2-(2-morpholin--yl-thiazol-5-yl)-vinyl]-benzoxazol-6-yloxy]-propan-1-ol] |  | The white space arrow indicates amyloid β protein | minus | ≧10 mg/kg | activity at 10 µM (Amyloid β protein 1-40; Congo red 0.1 μM, read-out: Binding Percentage of Compound in the presence of 0.1 μM CR): 73.6%; activity at 10 µM (Amyloid β protein 1-40; Congo red 0.3 μM, read-out: Binding Percentage of Compound in the presence of 0.3 μM CR): 35%; activity at 10 µM (Amyloid β protein 1-40; Congo red 1 μM, read-out: Binding Percentage of Compound in the presence of 1 μM CR): 3.1%; binding to neurofibrillary tangle in the brain section of an Alzheimer disease patient (neurofibrillary tangle): the white space arrow head indicates neurofibrillary tangle
